Test results: patent publication US12357622B2, “Pharmaceutical composition of S1PR modulators” (UNIVERSITA DEGLI STUDI DI FIRENZE, priority 2019, dated 2025)

How the values were obtained:
[1] = tested on: Atrogin-1/MAFbx; assay: Western Blotting analysis of Atrogin-1/MAFbx protein levels in C2C12 myotubes (atrophy induced by dexamethasone or TNFα); assay type: cell-based, murine; conditions: for effect on Dexa-induced expression of Atrogin-1/MAFbx (protein) / expression of Atrogin-1/MAFbx (protein): C2C12 myotubes; for effect on Dexa-induced expression of Atrogin-1/MAFbx (protein): modulator(s) added 1 hour before Dexa 100 μM for 48 hours, 2 μM CYM5520, 1 μM VPC23019, 2 μM W146, 2 μM FTY720; for expression of Atrogin-1/MAFbx (protein): modulator(s) in absence of Dexa, 2 μM CYM5520, 1 μM VPC23019, 2 μM W146
Procedure: (§1) C2C12 murine skeletal myoblasts obtained from the American Type Culture Collection (ATCC, Manassas, VA, USA) were cultured in Dulbecco's Modified Eagle's Medium (DMEM) (Sigma, Milan, Italy) with L-glutamine 1%, penicillin/streptomycin 1% (Sigma, Milan, Italy) and Foetal Bovine Serum 10% (FBS) (Sigma, Milan, Italy). For experiments with the myotubes, myoblasts were seeded in 6-wells plates at a concentration of 0.2×10^6 cells/ml. When the cells reached 90-100% confluence (72 hours after seeding), the medium was replaced with the differentiation medium (DM), consisting of DMEM containing antibiotics, glutamine and horse serum (HS) 2% (Sigma, Milan, Italy). The medium was changed every 24-48 hours. The complete cell differentiation was observed after 4-6 days of incubation with HS 2%. The C2C12 skeletal myotubes were incubated for 24-48 hours with the indicated compounds: Sphingosine 1-phosphate (S1P) 2 μM, or different concentration of CYM5520, VPC23019 and/or W146 (in the concentration range between 0.25 and 2 μM). CYM5478, TY52156 and siRNA specific for S1PR3 (NCBI ref NM_010101.4, sequence 5′-[…]-3 ′1118-1139 SEQ ID NO: 1, same size random oligonucleotides were used as negative control SCR-siRNA) were used in some of the experiments. The agonists/antagonists or S1PR3-siRNA or SCR-siRNA were added to the culture medium for 1 hour prior to treatment of the myotubes with dexamethasone (Dexa) 100 μM for 48 hours.
The Western Blotting analysis was carried out for determining the protein levels of Atrogin-1/MAFbx in C2C12 myotubes. The cells were lysed at 4° C. with RIPA buffer containing TrisHCl 50 mM, pH 7.5, NaCl 120 mM, EDTA 1 mM, EGTA 6 mM, Na4P2O7 15 mM, NaF 20 mM, 1% of cocktail Nonidet and protease inhibitor (1.04 mM AEBSF, 0.08 mM of aprotinin, leupeptin 0.02 mM, bestatin 0.04 mM, pepstatin A […], E-64 […] (Sigma, St. Louis, MO, USA). The lysates were centrifuged at 600× g for 6 min at 4° C., and the proteins concentration was measured by using the Bradford assay (Bio-Rad, Hercules, CA). Aliquots containing 40 μg of proteins were diluted in loading buffer 2× (10% SDS, 50% glycerol, 0.25% bromophenol blue and 0.25 M Tris-HCl, pH 6.8) and boiled at 90° C. for 10 minutes to denature proteins. The samples were subjected to SDS-polyacrylamide 10-12% (SDS-PAGE) gel electrophoresis and to Western blotting on Amersham Hybond p 0.45 PVDF membrane (GE Healthcare, Buckinghamshire, UK). […] After blocking, the membranes were washed in PBST and then incubated overnight with a 1:1000 dilution of the primary antibody comprising rabbit polyclonal antibody with Atrogin-1/MAFbx. After sufficient washings with PBST, the membranes were incubated for 1 hour at room temperature with secondary antibodies conjugated with goat anti-rabbit or goat anti-mouse horseradish peroxidase (Santa Cruz, Texas, USA) at dilution 1:10.000/1:5.000. Following three washings with PBST, the bands corresponding to the immunoreactive proteins were seen by using reagents for the detection of the Western blotting ECL (GE Healthcare, Buckinghamshire, UK); and finally, the membranes were exposed to a high performance chemiluminescence film (GE Healthcare, Buckinghamshire, UK). The identity of the bands on the Western Blot membranes was confirmed by comparing them with a high-precision marker having a known molecular weight (BioRad, Hercules, CA). Densitometric analysis of the bands was performed by using NIH IMAGE J (ImageJ software, Bethesda, MD, USA) and Quantity-One (imaging and analysis software from Bio-Rad Laboratories, Hercules, CA) and the intensity of the band was indicated as a relative percentage (mean and standard deviation from the mean), obtained by calculating the ratio of the specific protein with respect to the β-actin intensity and normalizing it to the control, set to 1.
To test the role of exogenous S1Ps, the terminally differentiated myotubes were treated with the bioactive lipid.

[2] = tested on: C2C12 myotubes; assay: Phase contrast microscopy of cellular morphology of C2C12 myotubes (diameter, number of myonuclei); assay type: cell-based, murine; conditions: for effect on atrophic morphology (myotube diameter, number of myonuclei): modulator(s) before Dexa 100 μM for 48 hours
Procedure: as §1
The images shown are representative of n. 5-6 observation frames for each treatment.
The C2C12 myoblasts were let to grow on a coverslip and when confluent they were moved on a differentiated medium for 4 days.
The C2C12 myotubes were grown on a coverslip and, when confluent, were moved onto a medium for the differentiation for 4 days. The cells were treated with the above reported combination of the three S1PR modulators before being incubated with Dexa for 48 hours. Then, the cells were fixed and observed with microscope.

[3] = tested on: S1PR3 receptor; assay: Silencing of the expression of the S1PR3 receptor by siRNA in C2C12 myotubes; assay type: cell-based; conditions: incubation with siRNA specific for mouse S1PR3
Procedure: C2C12 murine skeletal myoblasts obtained from the American Type Culture Collection (ATCC, Manassas, VA, USA) were cultured in Dulbecco's Modified Eagle's Medium (DMEM) (Sigma, Milan, Italy) with L-glutamine 1%, penicillin/streptomycin 1% (Sigma, Milan, Italy) and Foetal Bovine Serum 10% (FBS) (Sigma, Milan, Italy). For experiments with the myotubes, myoblasts were seeded in 6-wells plates at a concentration of 0.2×10^6 cells/ml. When the cells reached 90-100% confluence (72 hours after seeding), the medium was replaced with the differentiation medium (DM), consisting of DMEM containing antibiotics, glutamine and horse serum (HS) 2% (Sigma, Milan, Italy). The medium was changed every 24-48 hours. The complete cell differentiation was observed after 4-6 days of incubation with HS 2%. The C2C12 skeletal myotubes were incubated for 24-48 hours with the indicated compounds: Sphingosine 1-phosphate (S1P) 2 μM, or different concentration of CYM5520, VPC23019 and/or W146 (in the concentration range between 0.25 and 2 μM). CYM5478, TY52156 and siRNA specific for S1PR3 (NCBI ref NM_010101.4, sequence 5′-CGGGGUCCUCUGCAAGUGA-3 ′1118-1139 SEQ ID NO: 1, same size random oligonucleotides were used as negative control SCR-siRNA) were used in some of the experiments. […]

[4] = tested on: Atrogin-1/MAFbx; conditions: C2C12 myotubes, cited from earlier work
[5] = tested on: C2C12 myotubes; conditions: cited from earlier work
[6] = composition of the invention with CYM5520 replaced by the named compound (2 μM), in the presence of Dexa

Compound	effect on Dexa-induced expression of Atrogin-1/MAFbx (protein) [1]	expression of Atrogin-1/MAFbx (protein) [1]	effect on atrophic morphology (myotube diameter, number of myonuclei) ([2]; C2C12 myotubes)	also measured
CCCCCCCCc1ccc(CCC(N)(CO)CO)cc1 [FTY720]	not affected			formation of autophagic vesicles (morphological analysis) ([2]; C2C12 myotubes, FIG. 3C): promote the formation of small autophagic vesicles
S1PR3-siRNA: double-stranded RNA of 21 nucleotides, SEQ ID NO:1, silencing the expression of the S1PR3 receptor (CGGGGUCCUCUGCAAGUGA; combined with other compounds, further chemistry not given here) [Combination S1PR3-siRNA]				reduction of expression of the S1PR3 protein [3]: 40%; reduction of expression of the S1PR3 protein ([3]; listed as SEQ ID NO:1): about 40%
Cc1cc(C(=O)Cn2cc(C(F)(F)F)ccc2=O)c(C)n1Cc1ccccc1 [CYM5478]				effect on expression of Atrogin-1/MAFbx [1, 6]: effect comparable with that obtained with the combination of the invention; effect on cellular morphology [2, 6]: effect comparable with that obtained with the combination of the invention
CCCCCCCCCCCCC/C=C/[C@@H](O)[C@@H](N)COP(=O)(O)O [Combination S1P, Sphingosine 1-phosphate]				Atrogin-1/MAFbx level ([4]; S1P (1 μM) before Dexa 100 μM for 48 hours, FIG. 1 state of the art): reduce the Atrogin-1/MAFbx level, restoring the basal levels; expression of Atrogin-1/MAFbx ([4]; S1P (1 μM) without Dexa, FIG. 1A state of the art): significantly increase; cell morphology and number of nuclei ([5]; Dexa-treated cells in the presence of S1P, state of the art): no significant changes; morphological parameters of the myotubes (diameter and number of myonuclei) ([5]; S1P without Dexa, FIG. 1B, 1C state of the art): slightly change
CCCCCCc1cccc(NC(=O)[C@H](N)CCP(=O)(O)O)c1 [Combination W146]	did not counteract the effect of Dexa	did not induce	not significantly reduced	
CCCCCCCCc1cccc(NC(=O)C(N)COP(=O)(O)O)c1 (stereo not shown) [VPC23019, [2-amino-2-(3-octyl-phenylcarbamoyl)-ethyl] ester of phosphoric acid]	did not counteract the effect of Dexa	did not induce	not significantly reduced	
Cc1cc(C(=O)Cn2cc(C#N)ccc2=O)c(C)n1Cc1ccccc1 [CYM5520]	only slightly counteracted the GC effect	no increase was observed	not significantly reduced	
